Laboratory results reported in patent US8058460B2, “Near infrared fluorophore for the selective labelling of membranes in cells” (Universität Heidelberg, priority 2006, dated 2011).

Key:
[1] = test system: cell membranes of fixed cells; experiment: In vitro labelling of fixed cells; assay type: cell-based; settings: formaldehyde-fixed cells, 5 μM in 1×PBS, 5 minutes at 37° C.
Protocol: Staining the cell membranes of fixed cells is also compatible with KAYA1. For staining, the cells are cultured at the same conditions as described for in vivo labelling. The cells are fixed with HEPEM buffer containing 3.7% formaldehyde, 65 mM PIPES, 30 mM HEPES, 10 mM EGTA, 2 mM MgCl2, pH 6.9 for 15 min. Then the cells are washed twice with 1×PBS for 7.5 min. Finally the cell membranes are stained with KAYA1 (5 μM in 1×PBS) for 5 minutes at 37° C., washed with 1×PBS and covered with Vectashield.
(§1) The System used was a Leica DM IRBE (TSC/SP2) microscope operating with a helium/neon laser. Detection of all probes was visualized with the laser emission line 633 nm, the detection window was realized between 650 nm-800 nm.

[2] = test system: HeLa cell; experiment: Colocalization experiments with wheat-germ agglutinin (WGA); assay type: cell-based; settings: in vivo stains with KAYA1 compared with WGA in fixed cells (FIGS. 2a to 2c, 3a to 3c)
From the text: Wheat-germ agglutinin (WGA) is a glycoprotein (lectin) that recognizes and binds to specific glycoconjugates such as N-acetylneuraminic acid, N-acetyl glucosamine, membrane glycoprotein, chitin, cartilage, glucosamineglycans, glycolipids, and glycoproteins with sialic acid residues (cf. Monsigny M., Roche A-C., Sene C., raget-Dana R., Delmotte F., Sugar-Lectin Interactions: How does Wheat-germ Agglutinin bind Sialoglycoconjugates?, Eur. J. Biochem., 1980, (104), 147-153; Wright C S., Crystal structure of a wheat germ agglutinin/glycophorin-sialoglycopeptide receptor complex. Structural Basis for cooperative lectin-cell binding, J. Biol. Chem., 1992, 267(20), 14345-52). WGA is commonly used to stain the golgi apparatus, nuclear envelop and plasma membrane of fixed cells.
For the colocalization experiments the cells are stained with KAYA1 at the same conditions as described for in vivo labelling. Then the cells are fixed with HEPEM buffer and the membranes of the cells are permeabilized 30 min at 4° C. with 50 ml 1×PBS containing 50 mg Saponin. After washing the cells with 1×PBS for 5 min at room temperature the cells are incubated 15 min with 50 μg/ml WGA at 37° C. Finally the cells are washed with 1×PBS and covered with Vectashield, prior to analysis.

[3] = Solubility of KAYA1; assay type: physicochemical
Protocol: The Boc protecting group of compound A is cleaved with trifluoro acetic acid (6.7 ml, 87 mmol) in methanol (3 ml, 74 mmol) for 18 hours at room temperature. After evaporation and recrystallization in anisole KAYA1 was characterized by electrospray mass spectrometry: (Mfound 389.1245 m/e, 391.1611 m/e, Mcalc 388.12 m/e, 390.12 m/e); 1H NMR spectroscopy (CD3OD): S=1.39 ppm (m, 4H), 1.59 ppm (m, 2H), 1.64 ppm (m, 2H), 2.80 ppm (t, 2H), 3.24 ppm (t, 2H), 7.03 ppm (d, 1H), 7.08 ppm (d, 1H), 7.42 ppm (d, 1H), 7.65 ppm (d, 1H), 7.92 ppm (s, 1H); UV-Vis spectrophotometry (Absmax: 574 nm and 623 nm) and fluorimetry (Emmax: 660 nm).

[4] = test system: membranes of live HeLa cells; experiment: In vivo labelling of live cells, confocal laser scanning microscopy; assay type: cell-based; settings: live HeLa cells after incubation with KAYA1 labelling solution (FIGS. 2a to 2c)
Protocol: A protocol for the labelling of live cells was optimized for cultured HeLa cells (epithelial, cervical carcinoma), for LnCAP (Prostatacancer, fibroblasts) and VH7 (foreskin fibroblasts) that are adhering to coverslips. Cells are cultured on coverslips in DEMEM (VH7, HeLa) RPMI (LnCAP) with 10% foetal calf serum, 1 mM glutamine and antibiotics and incubated at 37° C. in an atmosphere of 5% CO2. A 5 μM solution of KAYA1 is prepared in a HEPES-Glucose buffer medium containing 115 mM NaCl, 1.2 mM CaCl2, 1.2 mM MgCl2, 1.2 mM K2HPO4, 20 mM HEPES, 10 mM Glucose, pH 7.4. After removing the cell medium the cells are incubated with the labeling solution for 1 minute at 37° C. The labeling solution is removed, the cells washed in 1×PBS and incubated with the cell medium, prior to analysis.
as §1
CLSM allows the blur from out of focus regions of the fluorescent specimen to be blocked, resulting in crisp, sharp images from well defined planes in the axial direction. Therefore the images presented here show well defined optical sections in z-axis of the microscope.

**Q.** With `NCCCCCCNc1ccc(O)c2c1C(=O)c1c(O)ccc(Cl)c1C2=O` [KAYA1, 1-(6-amino-hexylamino)-5-chloro-4,8-dihydroxy-anthraquinone] as the compound, how does the “staining of cell membranes of fixed cells” value [1] read?
**A.** compatible

**Q.** And the “similarity of stained regions with binding regions of WGA” value [2]?
**A.** high similarity with the specific binding regions of WGA

**Q.** What about the solubility in methanol ([3]; methanol) of the same compound?
**A.** soluble

**Q.** What about the solubility in water ([3]; water) of the same compound?
**A.** moderately soluble

**Q.** What about the “membrane structures visualized by the dye” value [4] of the same compound?
**A.** visualizes the cytoplasmatic membrane, the nuclear membrane and the membrane of certain organelles such as endoplasmatic reticulum and golgi apparatus
